From PubChem BioAssay AID489027 (Sanford-Burnham Center for Chemical Genomics, 2010)
Calls of active or inactive are those of the source. How the calls were made is not given here.

biological target: UPR counterscreen luciferase reporter, luminescence; test: activators in UPR counterscreen luciferase reporter, dose response, counter-screen for adaptive UPR activator project, cell-based, luminescence (AID 489027)

| Structure (SMILES) | EC50 |
| --- | --- |
| CC1(C)C=Cc2c(c3c(c4c(=O)c(-c5ccc(O)cc5)coc24)OC(C)(C)CC3)O1 | 13.1 µM |
| CCOC(=O)c1c(NC(=O)c2cc3n(n2)C(C(F)(F)F)CC(c2cccs2)N3)sc(C)c1C (stereo not given) | 8.7 µM |
| O=C(O)c1ccc(N2C(=O)/C(=C/c3ccc(-c4ccc([N+](=O)[O-])cc4)o3)C=C2c2ccccc2)cc1 | > 80 µM (inactive) |
| N#Cc1cnn2c1nc(N1CCCCC1)c1ccccc12 | > 80 µM (inactive) |
| COC(=O)c1c(NC(=O)CC2Nc3ccccc3NC2=O)sc(C)c1C (stereo not given) | inactive |
| N#C/C(=C\Nc1ccc2cn[nH]c2c1)c1nc(-c2ccc(Cl)cc2)cs1 | inactive |
| CCC1(c2ccc(F)cc2)NC(=O)N(CC(=O)Nc2ccc(-c3nc4ccc(C)cc4s3)cc2)C1=O (stereo not given) | > 80 µM (inactive) |
| O=C(Nc1ccc2oc(-c3ccccc3Cl)nc2c1)c1cncc(Br)c1 | > 80 µM (inactive) |
| CCOC(=O)c1cc(NC(=O)c2ccc(Cl)cc2)c(=O)n2c1oc1ccc(Cl)cc12 | > 80 µM (inactive) |
| O=C(Nc1ccc(Oc2ccc(NC(=O)Nc3ccccc3Cl)cc2)cc1)Nc1ccccc1Cl | > 80 µM (inactive) |
| Cc1ccc(S(=O)(=O)Cc2cc(F)c([N+](=O)[O-])cc2[N+](=O)[O-])cc1 | > 80 µM (inactive) |
| OCCNc1nc(Nc2ccc(Cl)c(Cl)c2)nc2ccccc12 | 10.8 µM |
| Oc1ccc(/C=N/Nc2nc(N3CCCC3)nc(N3CCCC3)n2)cc1O | 3.95 µM |
| O=C1Nc2ccccc2/C1=C/c1ccc([N+](=O)[O-])cc1 | inactive |
| COc1ccccc1NC(=O)c1cc2c(CO)cnc(C)c2oc1=Nc1ccccc1 | 13.3 µM |
| O=C(Nc1ccc([N+](=O)[O-])cc1)C(Cc1ccccc1)N1C(=O)c2cccc3cccc(c23)C1=O (stereo not given) | inactive |
| CCOc1ccc(NC(=S)NC(=O)/C=C/c2ccc(C)cc2)c([N+](=O)[O-])c1 | > 80 µM (inactive) |
| COc1ccc(/C=N/NC(=O)c2cccc([N+](=O)[O-])c2)c2ccccc12 | inactive |
| CC1CCc2c(sc(NC(=O)CCc3nc4ccccc4c(=O)[nH]3)c2C#N)C1 (stereo not given) | inactive |
| C/C(Cl)=C\Cn1c(O)c(N=NC(N)=S)c2cc(Br)ccc21 | 17.3 µM |
| CCc1nc(N=Nc2c(O)[nH]c3ccccc23)c2c3c(sc2n1)CCC3 | 10.7 µM |
| Cc1ccc2nc(NC(=O)c3ccc(-c4nc5ccccc5s4)s3)sc2c1 | 11 µM |
| Cc1ccccc1NC(=O)c1ccc(N/N=C/c2ccccc2O)c([N+](=O)[O-])c1 | 7.98 µM |
| COc1ccc2nc(NC(=O)c3cccc(-c4cc5ccccc5oc4=O)c3)sc2c1 | > 80 µM (inactive) |

| Structure (SMILES) | EC50 |
| --- | --- |
| FC(F)(F)c1nnc2c(Sc3ccccc3)nc3ccc(Cl)cc3n12 | 4.29 µM |
| COc1ccc(C2NCCc3c2[nH]c2ccccc32)cc1COc1ccc(F)cc1 (stereo not given) | 18.3 µM |
| CC(C)(C)c1csc(NC(=O)c2ccc(Cl)s2)n1 | > 80 µM (inactive) |
| O=C(COc1ccc(/C=N/NC(=O)c2cc3ccccc3o2)cc1Br)Nc1ccccc1 | 3.69 µM |
| O=c1oc(CCCO)cc2ccc(/C=C/c3cccc([N+](=O)[O-])c3)cc12 | > 80 µM (inactive) |
| CCOC(=O)c1c(NC(=O)CNC2CCCc3ccccc32)sc(C(N)=O)c1C (stereo not given) | > 80 µM (inactive) |
| CCCCN1C(=O)C(=O)c2cc(Cl)ccc21 | inactive |
| Cc1cc(C)c2c(c1)/C(=c1/sc3n(c1=O)CN(c1ccccc1)CN=3)C(=O)N2 | 10.5 µM |
| COc1ccc(NC(=O)CSc2nc3ccc(Nc4nc(N5CCOCC5)nc(N5CCOCC5)n4)cc3s2)cc1 | > 80 µM (inactive) |
| O=[N+]([O-])c1cccc(/C=C/c2ccc3cccc(O)c3n2)c1 | > 80 µM (inactive) |
| Cc1ccc(CNC(=O)c2ccc3c(=O)n4c(-c5ccc(C)cc5)csc4nc3c2)cc1 | > 80 µM (inactive) |
| CCC/C(=N/Nc1ccc(Cl)cc1)c1cnnc(-c2ccccc2)n1 | inactive |
| Cn1nnnc1Sc1ncnc2scc(-c3ccc(Br)cc3)c12 | 17.1 µM |
| COc1ccc(-c2c/c(=N\c3nc(-c4ccccc4)c(C)s3)c3ccccc3o2)cc1O | inactive |
| OC(CNCC1CCCO1)Cn1c2ccc(Br)cc2c2cc(Br)ccc21 (stereo not given) | > 80 µM (inactive) |
| CCOC(=O)c1sc(NC(=S)NC(=O)c2ccccc2)c(C(=O)OCC)c1C | inactive |
| Nc1nc(Nc2cccc(C(F)(F)F)c2)nc(C(F)(F)F)n1 | inactive |
| CN(C)CCCNC(=O)c1ccc(-c2nc(-c3ccc(Cl)cc3)cs2)cc1 | 9.53 µM |
| COc1cc(CNCCO)cc(Cl)c1OCc1ccc(Cl)cc1Cl | > 80 µM (inactive) |
| COc1ccc(S(=O)(=O)N2c3cc(Cl)ccc3Oc3nc4ccccc4nc32)cc1 | > 80 µM (inactive) |
| CCN=C1S/C(=C\c2cn(CC(=O)NCc3ccco3)c3ccccc23)C(=O)N1CC | > 80 µM (inactive) |
| Oc1ccc(/C=N/Nc2cc(N3CCOCC3)nc(N3CCOCC3)n2)cc1O | 3.8 µM |
| O=C(Nc1nc2ccc(Cl)cc2s1)c1ccc(N2CCCCC2)c([N+](=O)[O-])c1 | inactive |
| CCCn1c(SCc2nc3sc(C)c(C)c3c(=O)[nH]2)nc2ccccc2c1=O | > 80 µM (inactive) |

| Structure (SMILES) | EC50 |
| --- | --- |
| CCOc1ccc(C(=O)Nc2ccc(NC(=O)c3ccco3)c(Cl)c2)cc1Cl | 8.74 µM |
| COc1ccc(C(=O)O/N=C/c2c(C(F)(F)F)nn(C)c2SCc2ccccc2Cl)cc1 | inactive |
| O=C(Nc1ccc(-c2nc3cc(NC(=O)c4cccs4)ccc3o2)cc1)c1cccs1 | 4.72 µM |
| Cc1ccc(C(C)C)c(OCc2ccc(C(=O)N/N=C/c3ccc(O)c(O)c3)cc2)c1 | 4.95 µM |
| CCC(=O)Nc1ccc(-c2cc(-c3ccccc3)nc(-c3ccc(NC(=O)CC)cc3)n2)cc1 | > 80 µM (inactive) |
| CCCCCCCCCCOC(=O)Cn1c(COc2ccccc2OC)[n+](C)c2ccccc21 | 12.8 µM |
| N/C(=N\c1nc(CSc2ccccn2)cc(=O)[nH]1)Nc1ccc(Cl)cc1Cl | > 80 µM (inactive) |
| CCOc1ccccc1N=Cc1c(O)c2ccccc2oc1=O | 8.11 µM |
| COc1ccc(-c2cc(C(F)F)n3ncc(C(=O)N4CCc5ccccc5C4)c3n2)cc1 | inactive |
| Cc1ccc(C2=Nc3ccc(Br)cc3C(c3ccncc3)=NN2)cc1 | inactive |
| COc1cc(/C=C2\CC(C(C)(C)C)C/C(=C\c3cc(OC)c(OC)c(OC)c3)C2=O)cc(OC)c1OC (stereo not given) | 4 µM |
| O=c1[nH]c(O)c(/C=C2/C=CC(c3cc(Cl)ccc3Cl)=N2)c(=O)[nH]1 | 6.12 µM |
| CCOC(=O)C1=C(C)N=C2SC(C(=O)OC)=CC(=O)N2C1c1ccc(F)cc1 (stereo not given) | > 80 µM (inactive) |
| CCCCNc1c(-c2ccc(SC(C)CC)cc2)nc2cnccn12 (stereo not given) | 14.1 µM |
| C=CCn1c(O)c(C2=c3ccccc3=NC2=O)sc1=Nc1ccc(O)cc1 | 18.3 µM |
| O=c1cc(CN2CCN(c3ccc(F)cc3)CC2)c2cc3c(cc2o1)CCCC3 | 8.79 µM |
| Cc1cccc2sc(NC(=O)c3cc(S(=O)(=O)N(C)C)ccc3N3CCCC3)nc12 | 7.43 µM |
| Cc1cc(-n2c(SCC(=O)Nc3ccc(F)c(F)c3)nc3n[nH]c(C)c3c2=N)ccc1Cl | > 80 µM (inactive) |
| O=C(NCCc1ccc(O)c(O)c1)C1COc2ccccc2O1 (stereo not given) | 16.8 µM |
| O=c1cc2oc3cc(O)c(O)cc3c(-c3ccccc3[N+](=O)[O-])c-2cc1O | > 80 µM (inactive) |
| O=C(NCc1ccccc1Cl)c1cccc2c1C(=O)c1ccc(-c3ccc(OC(F)(F)F)cc3)cc1S2(=O)=O | 9.15 µM |
| O=C(Oc1ccccc1/C=C\C(=O)c1cc2ccccc2o1)c1cccc(F)c1 | 8.33 µM |
